Results on 21 compounds are retold here after patent US8846933B2, “N-link hydroxamic acid derivatives useful as antibacterial agents” (Pfizer Inc., priority 2009, dated 2014).

Holding throughout (assay type): cell-based
Experiment [1] relates to Acinetobacter baumanii/haemolyticus: Multidrug-resistant clinical isolate (AB-3167). The experiment can be described thus: MIC determination (CLSI), strain AB-3167. As to conditions: unit assumed. The protocol:
The in vitro antibacterial activity of compounds described in the Examples was evaluated by minimum inhibitory concentration (MIC) testing according to Clinical and Laboratory Standards Institute (CLSI, formerly NCCLS) guidelines. See: Clinical and Laboratory Standards Institute. Methods for Dilution Antimicrobial Susceptibility Tests for Bacteria that Grow Aerobically; Approved Standard-Seventh Edition. CLSI document M7-A7 [ISBN 1-56238-587-9]. Clinical and Laboratory Standards Institute, 940 West Valley Road, Suite 1400, Wayne, Pa. 19087-1898 USA, 2006; also Clinical and Laboratory Standards Institute. Performance Standards for Antimicrobial Susceptibility Testing; Eighteenth Informational Supplement. CLSI document M100-S18 [ISBN1-56238-653-0].Clinical and Laboratory Standards Institute.
The following bacterial strains were used in these MIC determinations:
2) Acinetobacter baumanii/haemolyticus: Multidrug-resistant clinical isolate labeled as AB-3167 in Tables 4 and 5;

For experiment [2], the system named is Escherichia coli EC-1: VOGEL, mouse virulent. The experiment can be described thus: MIC determination (CLSI), strain EC-1. As to conditions: Escherichia coli EC-1, VOGEL, mouse virulent; unit assumed. Summed up:
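The mouse-virulent VOGEL isolate of E. coli, EC-1, served as test organism. Minimum inhibitory concentration was measured by CLSI dilution methodology (M7-A7; M100-S18 standards).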

Experiment [3] relates to Pseudomonas aeruginosa UI-18: Wild-type (PA-7). The experiment can be described thus: MIC determination (CLSI), strain PA-7. As to conditions: Pseudomonas aeruginosa UI-18, wild-type; unit assumed. The method in brief:
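MIC determined by broth dilution per CLSI M7-A7 guidelines with M100-S18 interpretive standards. Test organism: wild-type Pseudomonas aeruginosa UI-18, designated PA-7.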

Some results are limits rather than exact numbers.

In experiment [1], `C[C@@](CCn1ccc(-c2ccc(OC3CCC(O)CC3)cc2)cc1=O)(C(=O)NO)S(C)(=O)=O` (stereo partly drawn) [Example 7, (2R)-N-hydroxy-4-[4-{4-[(4-hydroxycyclohexyl)oxy]phenyl}-2-oxopyridin-1(2H)-yl]-2-methyl-2-(methylsulfonyl)butanamide] showed an AB-3167 (MIC) of 64 µg/mL. The compound further gave an EC-1 (MIC) in experiment [2] of 1 µg/mL. The compound further came in with a PA-7 (MIC) in experiment [3] of 2 µg/mL.
The corresponding values for `C[C@@](CCn1ccc(-c2ccc(OC[C@H]3CC[C@@H](O)CC3)cc2)cc1=O)(C(=O)NO)S(C)(=O)=O` [Example 8, (2R)-N-hydroxy-4-[4-{4-[(cis-4-hydroxycyclohexyl)methoxy]phenyl}-2-oxopyridin-1(2H)-yl]-2-methyl-2-(methylsulfonyl)butanamide] are more than 64 µg/mL, 0.5 µg/mL and 1 µg/mL.
The corresponding values for `C[C@@](CCn1ccc(-c2ccc(OC[C@H]3CC[C@H](O)CC3)cc2)cc1=O)(C(=O)NO)S(C)(=O)=O` [Example 9, (2R)-N-hydroxy-4-[4-{4-[(trans-4-hydroxycyclohexyl)methoxy]phenyl}-2-oxopyridin-1(2H)-yl]-2-methyl-2-(methylsulfonyl)butanamide] are 32 µg/mL, 0.25 µg/mL and 1 µg/mL.
The corresponding values for `C[C@@](CCn1ccc(-c2ccc(OC[C@H]3CC[C@H](O)CC3)cc2F)cc1=O)(C(=O)NO)S(C)(=O)=O` [Example 10, (2R)-4-[4-{2-fluoro-4-[(trans-4-hydroxycyclohexyl)methoxy]phenyl}-2-oxopyridin-1(2H)-yl]-N-hydroxy-2-methyl-2-(methylsulfonyl) butanamide] are more than 64 µg/mL, 0.25 µg/mL and 1 µg/mL.
In the case of `CC1(O)CCC(Oc2ccc(-c3ccn(CC[C@](C)(C(=O)NO)S(C)(=O)=O)c(=O)c3)cc2)CC1` (stereo partly drawn) [Example 10-A, (2R)-N-hydroxy-4-[4-{4-[(4-hydroxy-4-methylcyclohexyl)oxy]phenyl}-2-oxopyridin-1(2H)-yl]-2-methyl-2-(methylsulfonyl)butanamide], in experiment [1], the AB-3167 (MIC) was more than 64 µg/mL. Moreover, in experiment [2], the EC-1 (MIC) worked out at 0.25 µg/mL. This compound also showed a PA-7 (MIC) in experiment [3] of 1 µg/mL.
Taken in the same sequence, the figures for `CC1(O)CC(COc2ccc(-c3ccn(CC[C@](C)(C(=O)NO)S(C)(=O)=O)c(=O)c3)cc2)C1` (stereo partly drawn) [Example 10-B, (2R)-N-hydroxy-4-[4-{4-[(3-hydroxy-3-methylcyclobutyl)methoxy]phenyl}-2-oxopyridin-1(2H)-yl]-2-methyl-2-(methylsulfonyl)butanamide] were more than 64 µg/mL, 0.5 µg/mL and 1 µg/mL.
Take `C[C@@](CCn1ccc(-c2ccc(OCCCC#N)cc2)cc1=O)(C(=O)NO)S(C)(=O)=O` [Example 10-C, (2R)-4-{4-[4-(3-cyanopropoxy)phenyl]-2-oxopyridin-1(2H)-yl}-N-hydroxy-2-methyl-2-(methylsulfonyl)butanamide]: in experiment [1], the AB-3167 (MIC) is more than 64 µg/mL. In experiment [2], this compound had an EC-1 (MIC) of 0.5 µg/mL. Also, the PA-7 (MIC) in experiment [3] stood at 1 µg/mL.
Taken in the same sequence, the figures for `C[C@@](CCn1ccc(-c2ccc(OCC3CC(CO)C3)cc2)cc1=O)(C(=O)NO)S(C)(=O)=O` (stereo partly drawn) [Example 10-D, (2R)-N-hydroxy-4-[4-(4-{[3-(hydroxymethyl)cyclobutyl]methoxy}phenyl)-2-oxopyridin-1(2H)-yl]-2-methyl-2-(methylsulfonyl)butanamide] were more than 64 µg/mL, 0.25 µg/mL and 1 µg/mL.
Taken in the same sequence, the figures for `CC(C)(O)CCCOc1ccc(-c2ccn(CCC(C)(C(=O)NO)S(C)(=O)=O)c(=O)c2)cc1` (stereo not drawn) [Example 10-E, N-hydroxy-4-[4-{4-[(4-hydroxy-4-methylpentyl)oxy]phenyl}-2-oxopyridin-1(2H)-yl]-2-methyl-2-(methylsulfonyl)butanamide] were more than 64 µg/mL, 0.5 µg/mL and 2 µg/mL.
Taken in the same sequence, the figures for `CC(CCn1ccc(-c2ccc(OC3CC(CO)C3)cc2)cc1=O)(C(=O)NO)S(C)(=O)=O` (stereo not drawn) [Example 10-F, N-hydroxy-4-[4-(4-{[3-(hydroxymethyl)cyclobutyl]oxy}phenyl)-2-oxopyridin-1(2H)-yl]-2-methyl-2-(methylsulfonyl)butanamide] were 64 µg/mL, 0.5 µg/mL and 2 µg/mL.
`CC1(O)CCC(Oc2ccc(-c3ccn(CC[C@](C)(C(=O)NO)S(C)(=O)=O)c(=O)c3)cc2)CC1` (stereo partly drawn) [Example 10-G, (2R)-N-hydroxy-4-[4-{4-[(4-hydroxy-4-methylcyclohexyl)oxy]phenyl}-2-oxopyridin-1(2H)-yl]-2-methyl-2-(methylsulfonyl)butanamide] gave an AB-3167 (MIC) in experiment [1] of 64 µg/mL. The EC-1 (MIC) in experiment [2] is 0.5 µg/mL. In experiment [3], the PA-7 (MIC) was 2 µg/mL.
`CC(C)(O)C1CC(Oc2ccc(-c3ccn(CC[C@](C)(C(=O)NO)S(C)(=O)=O)c(=O)c3)cc2)C1` (stereo partly drawn) [Example 10-H, (2R)-N-hydroxy-4-[4-(4-{[3-(1-hydroxy-1-methylethyl)cyclobutyl]oxy}phenyl)-2-oxopyridin-1(2H)-yl]-2-methyl-2-(methylsulfonyl)butanamide]: in experiment [1], the AB-3167 (MIC) was more than 64 µg/mL. The EC-1 (MIC) in experiment [2] turned out to be 1 µg/mL. The same compound had a PA-7 (MIC) in experiment [3] of 2 µg/mL.
The corresponding values for `CC1(O)CCC(Oc2ccc(-c3ccn(CC[C@](C)(C(=O)NO)S(C)(=O)=O)c(=O)c3)cc2F)CC1` (stereo partly drawn) [Example 10-I, (2R)-4-[4-{3-fluoro-4-[(4-hydroxy-4-methylcyclohexyl)oxy]phenyl}-2-oxopyridin-1(2H)-yl]-N-hydroxy-2-methyl-2-(methylsulfonyl)butanamide] are more than 64 µg/mL, 0.5 µg/mL and 2 µg/mL.
The corresponding values for `CC(C)(O)COc1ccc(-c2ccn(CCC(C)(C(=O)NO)S(C)(=O)=O)c(=O)c2)cc1` (stereo not drawn) [Example 10-J, N-hydroxy-4-{4-[4-(2-hydroxy-2-methylpropoxy)phenyl]-2-oxopyridin-1(2H)-yl}-2-methyl-2-(methylsulfonyl)butanamide] are more than 64 µg/mL, 4 µg/mL and 8 µg/mL.
The corresponding values for `CC(C)(O)C(O)CCOc1ccc(-c2ccn(CC[C@](C)(C(=O)NO)S(C)(=O)=O)c(=O)c2)cc1` (stereo partly drawn) [Example 10-K, (2R)-4-[4-{4-[(3,4-dihydroxy-4-methylpentyl)oxy]phenyl}-2-oxopyridin-1(2H)-yl]-N-hydroxy-2-methyl-2-(methylsulfonyl)butanamide] are more than 64 µg/mL, 8 µg/mL and 8 µg/mL.
For `C[C@@](CCn1ccc(-c2ccc(OC[C@H]3CC[C@@H](O)CC3)cc2F)cc1=O)(C(=O)NO)S(C)(=O)=O` [Example 10-L, (2R)-4-[4-{2-fluoro-4-[(cis-4-hydroxycyclohexyl)methoxy]phenyl}-2-oxopyridin-1(2H)-yl]-N-hydroxy-2-methyl-2-(methylsulfonyl)butanamide], in experiment [1], the AB-3167 (MIC) is more than 64 µg/mL. Moreover, in experiment [2], the EC-1 (MIC) is 0.25 µg/mL. Also, in experiment [3], the PA-7 (MIC) came out at 1 µg/mL.
The corresponding values for `C[C@@](CCn1ccc(-c2ccccc2)cc1=O)(C(=O)NO)S(C)(=O)=O` [Example 11, (2R)-N-Hydroxy-2-methyl-2-(methylsulfonyl)-4-(2-oxo-4-phenylpyridin-1(2H)-yl)butanamide] are 64 µg/mL, 8 µg/mL and 1 µg/mL.
The corresponding values for `Cc1c(O)ccc(-c2ccn(CC[C@](C)(C(=O)NO)S(C)(=O)=O)c(=O)c2)c1F` [Example 12, (2R)-4-[4-(2-fluoro-4-hydroxy-3-methylphenyl)-2-oxopyridin-1(2H)-yl]-N-hydroxy-2-methyl-2-(methylsulfonyl)butanamide] are more than 64 µg/mL, 16 µg/mL and 16 µg/mL.
Taken in the same sequence, the figures for `Cc1ccc(-c2ccn(CC[C@](C)(C(=O)NO)S(C)(=O)=O)c(=O)c2)c(F)c1` [Example 13, (2R)-4-[4-(2-fluoro-4-methylphenyl)-2-oxopyridin-1(2H)-yl]-N-hydroxy-2-methyl-2-(methylsulfonyl)butanamide] were more than 64 µg/mL, 0.5 µg/mL and 0.5 µg/mL.
`C[C@@](CCn1ccc(-c2cccc(F)c2F)cc1=O)(C(=O)NO)S(C)(=O)=O` [Example 14, (2R)-4-[4-(2,3-difluorophenyl)-2-oxopyridin-1(2H)-yl]-N-hydroxy-2-methyl-2-(methylsulfonyl)butanamide] showed an AB-3167 (MIC) in experiment [1] of more than 64 µg/mL. For the same compound, in experiment [2], the EC-1 (MIC) was 0.5 µg/mL. In experiment [3], this compound came in with a PA-7 (MIC) of 0.5 µg/mL.
In the case of `C[C@@](CCn1ccc(-c2ccc(Cl)cc2)cc1=O)(C(=O)NO)S(C)(=O)=O` [Example 15, (2R)-4-[4-(4-chlorophenyl)-2-oxopyridin-1(2H)-yl]-N-hydroxy-2-methyl-2-(methylsulfonyl)butanamide], the AB-3167 (MIC) in experiment [1] is more than 64 µg/mL. This compound gave an EC-1 (MIC) in experiment [2] of 0.5 µg/mL. In addition, the PA-7 (MIC) in experiment [3] was 0.5 µg/mL.
